Results on 10 compounds are retold here after ChEMBL document CHEMBL3044730, “Synthesis, antimycobacterial, antiviral, antimicrobial activities, and QSAR studies of nicotinic acid benzylidene hydrazide derivatives” (Med Chem Res, 2012).

Data set [1] can be described thus: Cytotoxicity against Chlorocebus aethiops (African green monkey) Vero cells assessed as alteration in cell morphology by microscopy. The class given is cell-based. The settings on record: chlorocebus sabaeus.
The next data set deals with Punta Toro virus. Put plainly: Antiviral activity against Punta Toro virus infected Vero cells assessed as inhibition of virus-induced cytopathicity. The data set is classed as functional, organism-based.
For data set [2], the system named is Coxsackievirus B4. The data set can be described thus: Antiviral activity against Human coxsackievirus B4 infected Vero cells assessed as inhibition of virus-induced cytopathicity. The data set is classed as functional, organism-based. The settings on record: Enterovirus B.
For another data set, the system named is Sindbis virus. The data set can be described thus: Antiviral activity against Sindbis virus infected Vero cells assessed as inhibition of virus-induced cytopathicity. The class given is functional, organism-based.
For data set [3], the system named is Mammalian orthoreovirus 1. Put plainly: Antiviral activity against Mammalian orthoreovirus 1 infected Vero cells assessed as inhibition of virus-induced cytopathicity by microscopy. The data set is classed as functional, organism-based. The settings on record: Mammalian orthoreovirus 1, Vero.
The subject of another data set is Human respirovirus 3. The data set can be described thus: Antiviral activity against Human parainfluenza virus 3 infected Vero cells assessed as inhibition of virus-induced cytopathicity by microscopy. The settings on record: Human respirovirus 3, Vero. The class given is functional, organism-based.
A short description of data set [4]: Cytotoxicity against Homo sapiens (human) HeLa cells assessed as alteration in cell morphology by microscopy. The class given is cell-based.
Data set [5] deals with Respiratory syncytial virus. The data set can be described thus: Antiviral activity against Respiratory syncytial virus infected human HeLa cells assessed as inhibition of virus-induced cytopathicity by microscopy. The data set is classed as functional, organism-based.
The subject of data set [6] is Coxsackievirus B4. Put plainly: Antiviral activity against Human coxsackievirus B4 infected human HeLa cells assessed as inhibition of virus-induced cytopathicity by microscopy. The class given is functional, organism-based. The settings on record: Enterovirus B.
Data set [7] relates to Vesicular stomatitis virus. Put plainly: Antiviral activity against Vesicular stomatitis virus infected human HeLa cells assessed as inhibition of virus-induced cytopathicity by microscopy. The data set is classed as functional, organism-based.
Data set [8] in a line: Cytotoxicity against Homo sapiens (human) HEL cells assessed as alteration in cell morphology by microscopy. The data set is classed as cell-based.
For data set [9], the system named is Human herpesvirus 3 strain Oka vaccine. Put plainly: Antiviral activity against Human herpesvirus 3 strain Oka vaccine OKA 07-1 (Varicella zoster virus) infected in human HEL cells assessed as inhibition of virus-induced cytopathicity. Conditions: Human alphaherpesvirus 3, OKA 07-1, HEL. The data set is classed as functional, organism-based.
Data set [10] relates to Human herpesvirus 5 strain AD169. Put plainly: Antiviral activity against Human herpesvirus 5 strain AD169 Davis infected human HEL cells assessed as inhibition of virus-induced cytopathicity by microscopy. The class given is functional, organism-based. Conditions: Human betaherpesvirus 5, Davis.
Data set [11] concerns Human alphaherpesvirus 1. The data set can be described thus: Antiviral activity against TK(-) aciclovir-resistant Human herpesvirus 1 strain KOS infected in human HEL cells assessed as inhibition of virus-induced cytopathicity. The data set is classed as functional, organism-based. Conditions: Human alphaherpesvirus 1, KOS.
In the next data set the test system is Human alphaherpesvirus 2. The data set can be described thus: Antiviral activity against Human herpesvirus 2 strain G infected human HEL cells assessed as inhibition of virus-induced cytopathicity by microscopy. The class given is functional, organism-based. The settings on record: Human alphaherpesvirus 2, strain G.
Another data set deals with Vaccinia virus. The data set can be described thus: Antiviral activity against Vaccinia virus infected human HEL cells assessed as inhibition of virus-induced cytopathicity by microscopy. The class given is functional, organism-based. Conditions: Orthopoxvirus vaccinia.
Data set [12] in a line: Cytotoxicity against Homo sapiens (human) MT4 cells after 4 days by MTT assay. The data set is classed as cell-based.
Data set [13] deals with Human alphaherpesvirus 1. The data set can be described thus: Antiviral activity against Human herpesvirus 1 strain KOS infected in human HEL cells assessed as inhibition of virus-induced cytopathicity by microscopy by microscopy. The class given is functional, organism-based. The settings on record: Human alphaherpesvirus 1, KOS.
In data set [14] the test system is Human immunodeficiency virus 2. The data set can be described thus: Antiviral activity against Human immunodeficiency virus type 2 (ISOLATE ROD) infected MT4 cells assessed as inhibition of virus-induced cytopathic effect after 4 days by MTT assay. The data set is classed as functional, organism-based. Conditions: Human immunodeficiency virus 2, ISOLATE ROD, MT4, 96 h.

For data set [15], the system named is Human immunodeficiency virus 1. Put plainly: Antiviral activity against Human immunodeficiency virus 1 IIIB infected MT4 cells assessed as inhibition of virus-induced cytopathic effect after 4 days by MTT assay. The class given is functional, organism-based. The settings on record: MT4, 96 h.
In data set [16] the test system is Candida albicans. Put plainly: Antimicrobial activity against Candida albicans after 2 days by serial dilution method. The data set is classed as functional. Details: unit not given here.
Data set [17] has as its system Candida albicans. Put plainly: Antimicrobial activity against Candida albicans after 7 days by serial dilution method. The data set is classed as functional. Details: unit not given here.
A further data set concerns Escherichia coli. Put plainly: Antimicrobial activity against Escherichia coli after 24 hr by serial dilution method. The class given is functional. More on the design: unit not given here.
In a further data set the test system is Staphylococcus aureus. The data set can be described thus: Antimicrobial activity against Staphylococcus aureus after 24 hr by serial dilution method. The data set is classed as functional. More on the design: unit not given here.
In another data set the test system is Bacillus subtilis. The data set can be described thus: Antimicrobial activity against Bacillus subtilis after 24 hr by serial dilution method. More on the design: unit not given here. The class given is functional.
Data set [18] deals with Mycobacterium tuberculosis. The data set can be described thus: Antimicrobial activity against Mycobacterium tuberculosis by agar dilution method. The data set is classed as functional.

≈ marks a conversion by molar mass, not a printed value. Some results are limits rather than exact numbers.

On to `COc1cc(/C=N/NC(=O)c2cccnc2)ccc1O`, for which the MCC is > 100 µg/mL in [1], > 100 µg/mL in data set [4] and 100 µg/mL in data set [8]. The EC50 (in the data set on Punta Toro virus; in the data set with Coxsackievirus B4 [2]; with Sindbis virus; in data set [3]; in the data set on Human respirovirus 3; in [5]) was > 100 µg/mL each time. Also, the EC50 in the data set on Coxsackievirus B4 [6] is > 100 µg/mL; in data set [7], > 100 µg/mL; in data set [9], > 100 µg/mL; in data set [10], > 20 µg/mL; in the data set with Human alphaherpesvirus 1 [11], > 20 µg/mL; in the data set on Human alphaherpesvirus 2, > 20 µg/mL. The EC50 in the data set on Vaccinia virus was > 20 µg/mL; in the data set with Human alphaherpesvirus 1 [13], > 20 µg/mL; in [14] it was > 93 µg/mL; in data set [15], > 93 µg/mL. The half-maximal cytotoxic concentration (CC50) in data set [8] is > 100 µg/mL. Besides, in data set [12], the cytotoxic concentration (CC50) at 96 h was ≥ 93 µg/mL. The “-logMIC” value was found to be 1.34 with Candida albicans [16]; 1.64 in the data set on Candida albicans [17]; 0.43 with Escherichia coli; 0.43 with Staphylococcus aureus; 0.43 in the data set with Bacillus subtilis. For the same compound, the minimum inhibitory concentration (MIC) in data set [18] was > 25 µg/mL.

Regarding `CCOc1cc(/C=N/NC(=O)c2cccnc2)ccc1O`, the MCC in data set [1] is > 100 µg/mL; in [4], > 100 µg/mL; in data set [8], 100 µg/mL. The EC50 (in the data set with Punta Toro virus; in the data set on Coxsackievirus B4 [2]; with Sindbis virus; in data set [3]; with Human respirovirus 3; in data set [5]) was > 100 µg/mL in each case. In addition, the EC50 in the data set with Coxsackievirus B4 [6] was > 100 µg/mL; in data set [7] it was > 100 µg/mL; in data set [9], > 70 µg/mL; in data set [10], > 20 µg/mL; with Human alphaherpesvirus 1 [11], > 20 µg/mL; in the data set with Human alphaherpesvirus 2, > 20 µg/mL. For the same compound, the EC50 in the data set with Vaccinia virus was > 20 µg/mL; with Human alphaherpesvirus 1 [13] it was > 20 µg/mL; in data set [14] it was > 117 µg/mL; in data set [15], > 117 µg/mL. Further, the CC50 in data set [8] is 63 µg/mL (≈ 221 µM). The half-maximal cytotoxic concentration (CC50) at 96 h in data set [12] was ≥ 117 µg/mL. Further, the “-logMIC” value with Candida albicans [16] was 1.36; in the data set on Candida albicans [17], 1.96; in the data set with Escherichia coli it was 1.06; with Staphylococcus aureus, 1.36; with Bacillus subtilis it was 1.36. The MIC in data set [18] was > 25 µg/mL.

In data set [18], `O=C(O)c1cn(C2CC2)c2cc(N3CCNCC3)c(F)cc2c1=O` [CIPROFLOXACIN] showed an MIC of 3.13 µg/mL (≈ 9.45 µM).

`CC[C@@H](CO)NCCN[C@@H](CC)CO` [ETHAMBUTOL] registered an MIC in [18] of 1.56 µg/mL (≈ 7.64 µM).

For the compound `OC(Cn1cncn1)(Cn1cncn1)c1ccc(F)cc1F` [FLUCONAZOLE], the “-logMIC” value in the data set on Candida albicans [16] and in the data set with Candida albicans [17] was 2.64 throughout.

Compound `NNC(=O)c1ccncc1` [ISONIAZID] showed an MIC in data set [18] of 0.1 µg/mL (≈ 0.729 µM).

In the case of `Cc1ccnc2c1NC(=O)c1cccnc1N2C1CC1` [NEVIRAPINE], the CC50 at 96 h in data set [12] was > 4 µg/mL. Besides, the EC50 in data set [14] came to 4 µg/mL (≈ 15 µM); in data set [15] it was 0.05 µg/mL (≈ 0.188 µM).

Turning to `NNC(=O)c1cccnc1` [NICOTINIC ACID HYDRAZIDE], the “-logMIC” value is listed as 1.04 with Candida albicans [16]; 1.04 in the data set with Candida albicans [17]; 0.74 with Escherichia coli; 0.74 with Staphylococcus aureus; 1.04 with Bacillus subtilis.

Consider `CCn1cc(C(=O)O)c(=O)c2cc(F)c(N3CCNCC3)cc21` [NORFLOXACIN], for which the “-logMIC” value in the data set on Escherichia coli, in the data set on Staphylococcus aureus and with Bacillus subtilis was 2.61 each time.

In the case of `Cc1cn([C@H]2C[C@H](N=[N+]=[N-])[C@@H](CO)O2)c(=O)[nH]c1=O` [ZIDOVUDINE], the cytotoxic concentration (CC50) at 96 h in data set [12] was > 2.5 µg/mL. Also, the 50% effective concentration (EC50) in data set [14] is 0.0009 µg/mL (≈ 0.00337 µM).
